Values of other authors as cited in patent US7282487B2, “Method for treating bacterial infections in horses or pigs with tilmicosin” (priority 2004, dated 2007).

Question: For CC[C@H]1OC(=O)C[C@@H](O)[C@H](C)[C@@H](OC2OC(C)C(O)C(N(C)C)C2O)[C@@H](CCN2C[C@@H](C)C[C@H](C)C2)C[C@@H](C)C(=O)/C=C/C(C)=C/[C@@H]1COC1OC(C)C(O)C(OC)C1OC (stereo partly shown) [tilmicosin, Tilmicosin], which “solubility in aqueous solutions” value is on record?
Answer: moderately soluble
